The source of these data is patent publication US7202243B2, “Substituted imidazotriazines” (Bayer HealthCare AG, priority 2002, dated 2007).

T1 sequence (Q9Y233 1-779 isoform Q9Y233-1): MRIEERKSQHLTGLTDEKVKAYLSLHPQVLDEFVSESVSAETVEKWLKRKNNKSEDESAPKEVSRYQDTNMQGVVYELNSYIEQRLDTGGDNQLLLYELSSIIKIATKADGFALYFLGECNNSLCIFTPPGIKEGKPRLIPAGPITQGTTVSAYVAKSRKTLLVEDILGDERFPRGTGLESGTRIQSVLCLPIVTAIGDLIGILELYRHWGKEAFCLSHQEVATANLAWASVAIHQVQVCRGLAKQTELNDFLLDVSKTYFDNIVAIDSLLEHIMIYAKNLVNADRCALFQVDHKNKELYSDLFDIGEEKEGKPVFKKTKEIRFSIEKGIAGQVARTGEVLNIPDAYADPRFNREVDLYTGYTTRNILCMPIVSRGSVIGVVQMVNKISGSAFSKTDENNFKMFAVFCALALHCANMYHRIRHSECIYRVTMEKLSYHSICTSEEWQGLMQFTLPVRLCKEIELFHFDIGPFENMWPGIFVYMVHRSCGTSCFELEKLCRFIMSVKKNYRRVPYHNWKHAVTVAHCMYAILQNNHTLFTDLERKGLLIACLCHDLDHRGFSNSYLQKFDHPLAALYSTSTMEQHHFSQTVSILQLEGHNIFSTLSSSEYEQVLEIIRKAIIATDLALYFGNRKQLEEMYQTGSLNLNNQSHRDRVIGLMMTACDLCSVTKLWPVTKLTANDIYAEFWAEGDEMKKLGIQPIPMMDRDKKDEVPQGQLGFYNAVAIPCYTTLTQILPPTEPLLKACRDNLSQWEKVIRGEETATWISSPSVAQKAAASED

The assay concerns the target T1, PDE 10A (Homo sapiens, UniProt Q9Y233).
T1 construct: is expressed recombinantly in full length in Sf9 insect cells; made in house; host or cells: Sf9 insect cells, Bac-to-Bac baculovirus expression system
Briefly: Inhibition of PDE 10A (in vitro enzyme inhibition test, [3H]cAMP scintillation proximity assay). The assay is classed as biochemical. The settings on record: recombinant full-length PDE 10A expressed in Sf9 insect cells; substrate [5',8-3H] cAMP; 60 min at 20° C. The procedure: 48 h after infection, the cells are harvested and suspended in 20 ml (per 1 l of culture) of lysis buffer (50 mM tris HCl, pH 7.4, 50 mM NaCl, 1 mM MgCl2, 1.5 mM EDTA, 10% glycerol plus 20 μl of Protease Inhibitor Cocktail Set III [CalBiochem, La Jolla, Calif. USA]). The cells are treated with ultrasound at 4° C. for 1 minute and subsequently centrifuged at 10 000 rpm for 30 minutes at 4° C. The supernatant (PDE 10A preparation) was collected and stored at −20° C.
The test substances are dissolved in 100% DMSO for the determination of their in vitro action on PDE 10A and serially diluted. […] 2 μl of the diluted substance solutions in each case are introduced into the hollows of microtiter plates (Isoplate; Wallac Inc., Atlanta, Ga.). Subsequently, 50 μl of a dilution of the PDE 10A preparation described above are added. The dilution of the PDE 10A preparation is chosen such that during the later incubation less than 70% of the substrate is reacted (typical dilution: 1:10 000; dilution buffer: 50 mM tris/HCl pH 7.5, 8.3 mM MgCl2, 1.7 mM EDTA, 0.2% BSA). The substrate, [5′,8-^3H] adenosine 3′,5′-cyclic phosphate (1 μCi/μl; Amersham Pharmacia Biotech., Piscataway, N.J.) is diluted 1:2000 with assay buffer (50 mM tris/HCl pH 7.5, 8.3 mM MgCl2, 1.7 mM EDTA) to a concentration of 0.0005 μCi/μl. The enzyme reaction is finally started by addition of 50 μl (0.025 μCi) of the diluted substrate. The test batches are incubated for 60 min at 20° C. and the reaction is stopped by addition of 25 μl of a suspension containing 18 mg/ml of Yttrium Scintillation Proximity Beads (Amersham Pharmacia Biotech., Piscataway, N.J.). The microtiter plates are sealed using a film and allowed to stand for 60 min at 20° C. Subsequently, the plates are measured for 30 s per hollow in a Microbeta scintillation counter (Wallac Inc., Atlanta, Ga.). IC50 values are determined by means of graphic plotting of the substance concentration against the percentage inhibition.
(SPA uses beads or plates that emit light when radiolabelled molecules are held near them.)
As usually defined, the IC50 is the point on the concentration scale where inhibition reaches its midpoint. As to `COc1cc(Oc2nc(-c3ccc(NC(C)=O)cc3)nn3c(C)nc(C)c23)cc(OC)c1OC` [Example 2, N-{4-[5,7-Dimethyl-4-(3,4,5-trimethoxyphenoxy)imidazo[5,1-f][1,2,4]triazin-2-yl]-phenyl}acetamide], the IC50 was found to be 37 nM.

With `COc1cc(Oc2nc(-c3cccc(NC(C)=O)c3)nn3c(C)nc(C)c23)cc(OC)c1OC` [Example 9, N-{3-[5,7-Dimethyl-4-(3,4,5-trimethoxyphenoxy)imidazo[5,1-f][1,2,4]triazin-2-yl]-phenyl}acetamide], the half-inhibitory concentration (IC50) was 30 nM.

In the case of `COc1cc(Nc2nc(-c3cccc(NS(C)(=O)=O)c3)nn3c(C)nc(C)c23)cc(OC)c1OC` [Example 11, N-(3-{5,7-Dimethyl-4-[(3,4,5-trimethoxyphenyl)amino]imidazo[5,1-f][1,2,4]triazin-2-yl}phenyl)methanesulfonamide], the IC50 stood at 43 nM.

With `COc1cc(Nc2nc(-c3ccc(NC=O)cc3)nn3c(C)nc(C)c23)cc(OC)c1OC` [Example 12, 4-{5,7-Dimethyl-4-[(3,4,5-trimethoxyphenyl)amino]imidazo[5,1-f][1,2,4]triazin-2-yl}phenylformamide], the IC50 worked out at 8 nM.

For the compound `COc1cc(Nc2nc(-c3ccc(NC(=O)CO)cc3)nn3c(C)nc(C)c23)cc(OC)c1OC` [Example 15, N-(4-{5,7-Dimethyl-4-[(3,4,5-trimethoxyphenyl)amino]imidazo[5,1-f][1,2,4]triazin-2-yl}phenyl)-2-hydroxyacetamide], the IC50 was found to be 6 nM.
